Results taken from patent US12558357B2, “Tetrahydroquinazoline derivatives as selective cytotoxic agents” (Merck Sharp & Dohme LLC, priority 2020, dated 2026).

Each molecule was assayed on PBMCs infected with VSV-G pseudotyped HIV virus (VSV-G/pNLG1-P2A-ΔEnv) (assay: cells). Settings: Homo sapiens, PBMC, read-out: EC50 (HIV-TACK cell kill activity).
Assay type: cell-based, human

Compound | EC50 [nM]
COCc1cc(=O)n(Cc2cc3c(cc2F)[C@@](C#CC2CC2)(C(F)(F)F)NC(=O)N3)cn1 [Example 7, (S)-4-(cyclopropylethynyl)-6-fluoro-7-((4-(methoxymethyl)-6-oxopyrimidin-1(6H)-yl)methyl)-4-(trifluoromethyl)-3,4-dihydroquinazolin-2(1H)-one] | 44
Nc1c(Cl)ncn(Cc2cc3c(cc2F)[C@@](C#CC2CC2)(C(F)(F)F)NC(=O)N3)c1=O [Example 8, (S)-7-((5-amino-4-chloro-6-oxopyrimidin-1(6H)-yl)methyl)-4-(cyclopropylethynyl)-6-fluoro-4-(trifluoromethyl)-3,4-dihydroquinazolin-2(1H)-one] | 46
Nc1nccn(Cc2ccc3c(c2)NC(=O)N[C@]3(C#CC2CC2)C(F)(F)F)c1=O [Example 9, (S)-7-((3-amino-2-oxopyrazin-1(2H)-yl)methyl)-4-(cyclopropylethynyl)-4-(trifluoromethyl)-3,4-dihydroquinazolin-2(1H)-one] | 30
Nc1c(Cl)ncn(Cc2cc3c(cc2Cl)[C@@](C#CC2CC2)(C(F)(F)F)NC(=O)N3)c1=O [Example 11, (S)-7-((5-amino-4-chloro-6-oxopyrimidin-1(6H)-yl)methyl)-6-chloro-4-(cyclopropylethynyl)-4-(trifluoromethyl)-3,4-dihydroquinazolin-2(1H)-one] | 33
O=C1Nc2cc(Cn3cnc(Cl)cc3=O)c(Cl)cc2[C@@](C#CC2CC2)(C(F)(F)F)N1 [Example 12, (S)-6-chloro-7-((4-chloro-6-oxopyrimidin-1(6H)-yl)methyl)-4-(cyclopropylethynyl)-4-(trifluoromethyl)-3,4-dihydroquinazolin-2(1H)-one] | 33
Nc1cc(=O)n(Cc2cc3c(cc2Cl)[C@@](C#CC2CC2)(C(F)(F)F)NC(=O)N3)cn1 [Example 13, (S)-7-((4-amino-6-oxopyrimidin-1(6H)-yl)methyl)-6-chloro-4-(cyclopropylethynyl)-4-(trifluoromethyl)-3,4-dihydroquinazolin-2(1H)-one] | 46
O=C1Nc2cc(Cn3cnccc3=O)c(Br)cc2[C@@](C#CC2CC2)(C(F)(F)F)N1 [Example 14, (S)-6-bromo-4-(cyclopropylethynyl)-7-((6-oxopyrimidin-1(6H)-yl)methyl)-4-(trifluoromethyl)-3,4-dihydroquinazolin-2(1H)-one] | 31
COCc1cc(=O)n(Cc2ccc3c(c2)NC(=O)N[C@]3(C#CC2CC2)C(C)(F)F)cn1 [Example 15, (S)-4-(cyclopropylethynyl)-4-(1,1-difluoroethyl)-7-((4-(methoxymethyl)-6-oxopyrimidin-1(6H)-yl)methyl)-3,4-dihydroquinazolin-2(1H)-one] | 65
Nc1nc(Br)cn(Cc2cc3c(cc2F)[C@@](C#CC2CC2)(C(F)(F)F)NC(=O)N3)c1=O [Example 16, (S)-7-((3-amino-5-bromo-2-oxopyrazin-1(2H)-yl)methyl)-4-(cyclopropylethynyl)-6-fluoro-4-(trifluoromethyl)-3,4-dihydroquinazolin-2(1H)-one] | 38
CC(F)(F)[C@@]1(C#CC2CC2)NC(=O)Nc2cc(Cn3ccnc(N)c3=O)c(Cl)cc21 [Example 17, (S)-7-((3-amino-2-oxopyrazin-1(2H)-yl)methyl)-6-chloro-4-(cyclopropylethynyl)-4-(1,1-difluoroethyl)-3,4-dihydroquinazolin-2(1H)-one] | 17
Cc1cc(=O)n(Cc2cc3c(cc2Cl)[C@@](C#CC2CC2)(C(C)(F)F)NC(=O)N3)cn1 [Example 18, (S)-6-chloro-4-(cyclopropylethynyl)-4-(1,1-difluoroethyl)-7-((4-methyl-6-oxopyrimidin-1(6H)-yl)methyl)-3,4-dihydroquinazolin-2(1H)-one] | 15
COCc1cc(=O)n(Cc2cc3c(cc2Cl)[C@@](C#CC2CC2)(C(C)(F)F)NC(=O)N3)cn1 [Example 19, (S)-6-chloro-4-(cyclopropylethynyl)-4-(1,1-difluoroethyl)-7-((4-(methoxymethyl)-6-oxopyrimidin-1(6H)-yl)methyl)-3,4-dihydroquinazolin-2(1H)-one] | 14
Nc1nccn(Cc2c(F)cc3c(c2F)NC(=O)N[C@]3(C#CC2CC2)C(F)(F)F)c1=O [Example 20, (S)-7-((3-amino-2-oxopyrazin-1(2H)-yl)methyl)-4-(cyclopropylethynyl)-6,8-difluoro-4-(trifluoromethyl)-3,4-dihydroquinazolin-2(1H)-one] | 47
O=C1Nc2cc(Cn3cnccc3=O)ccc2[C@@](C#CC2CC2)(C(F)(F)F)N1 [Example 21, (S)-4-(cyclopropylethynyl)-7-((6-oxopyrimidin-1(6H)-yl)methyl)-4-(trifluoromethyl)-3,4-dihydroquinazolin-2(1H)-one] | 181
O=C1Nc2cc(Cn3cnc(C4CC4)cc3=O)ccc2[C@@](C#CC2CC2)(C(F)(F)F)N1 [Example 22, (S)-7-((4-cyclopropyl-6-oxopyrimidin-1(6H)-yl)methyl)-4-(cyclopropylethynyl)-4-(trifluoromethyl)-3,4-dihydroquinazolin-2(1H)-one] | 288
O=C1Nc2cc(Cn3ncccc3=O)ccc2[C@@](C#CC2CC2)(C(F)(F)F)N1 [Example 23, (S)-4-(cyclopropylethynyl)-7-((6-oxopyridazin-1(6H)-yl)methyl)-4-(trifluoromethyl)-3,4-dihydroquinazolin-2(1H)-one] | 250
Nc1ccnn(Cc2ccc3c(c2)NC(=O)N[C@]3(C#CC2CC2)C(F)(F)F)c1=O [Example 24, (S)-7-((5-amino-6-oxopyridazin-1(6H)-yl)methyl)-4-(cyclopropylethynyl)-4-(trifluoromethyl)-3,4-dihydroquinazolin-2(1H)-one] | 210
O=C1Nc2cc(Cn3cnc(C(F)(F)F)cc3=O)ccc2[C@@](C#CC2CC2)(C(F)(F)F)N1 [Example 25, (S)-4-(cyclopropylethynyl)-7-((6-oxo-4-(trifluoromethyl)pyrimidin-1(6H)-yl)methyl)-4-(trifluoromethyl)-3,4-dihydroquinazolin-2(1H)-one] | 194
Nc1ccnn(Cc2cc3c(cc2F)[C@@](C#CC2CC2)(C(F)(F)F)NC(=O)N3)c1=O [Example 26, (S)-7-((5-amino-6-oxopyridazin-1(6H)-yl)methyl)-4-(cyclopropylethynyl)-6-fluoro-4-(trifluoromethyl)-3,4-dihydroquinazolin-2(1H)-one] | 226
N#Cc1cc(=O)n(Cc2ccc3c(c2)NC(=O)N[C@]3(C#CC2CC2)C(F)(F)F)cn1 [Example 27, (S)-1-((4-(cyclopropylethynyl)-2-oxo-4-(trifluoromethyl)-1,2,3,4-tetrahydroquinazolin-7-yl)methyl)-6-oxo-1,6-dihydropyrimidine-4-carbonitrile] | 190
Nc1cc(=O)n(Cc2ccc3c(c2)NC(=O)N[C@]3(C#CC2CC2)C(F)(F)F)cn1 [Example 28, (S)-7-((4-amino-6-oxopyrimidin-1(6H)-yl)methyl)-4-(cyclopropylethynyl)-4-(trifluoromethyl)-3,4-dihydroquinazolin-2(1H)-one] | 171
O=C1Nc2cc(Cn3nc(Cl)ccc3=O)ccc2[C@@](C#CC2CC2)(C(F)(F)F)N1 [Example 29, (S)-7-((3-chloro-6-oxopyridazin-1(6H)-yl)methyl)-4-(cyclopropylethynyl)-4-(trifluoromethyl)-3,4-dihydroquinazolin-2(1H)-one] | 161
Cc1cnc(N)c(=O)n1Cc1ccc2c(c1)NC(=O)N[C@]2(C#CC1CC1)C(F)(F)F [Example 30, (S)-7-((3-amino-6-methyl-2-oxopyrazin-1(2H)-yl)methyl)-4-(cyclopropylethynyl)-4-(trifluoromethyl)-3,4-dihydroquinazolin-2(1H)-one] | 152
COCc1cc(=O)n(Cc2ccc3c(c2)NC(=O)N[C@]3(C#CC2CC2)C(F)(F)F)cn1 [Example 31, (S)-4-(cyclopropylethynyl)-7-((4-(methoxymethyl)-6-oxopyrimidin-1(6H)-yl)methyl)-4-(trifluoromethyl)-3,4-dihydroquinazolin-2(1H)-one] | 146
Nc1c(C(F)(F)F)ncn(Cc2ccc3c(c2)NC(=O)N[C@]3(C#CC2CC2)C(F)(F)F)c1=O [Example 33, (S)-7-((5-amino-6-oxo-4-(trifluoromethyl)pyrimidin-1(6H)-yl)methyl)-4-(cyclopropylethynyl)-4-(trifluoromethyl)-3,4-dihydroquinazolin-2(1H)-one] | 126
Cc1cc(=O)n(Cc2ccc3c(c2)NC(=O)N[C@]3(C#CC2CC2)C(F)(F)F)cn1 [Example 34, (S)-4-(cyclopropylethynyl)-7-((4-methyl-6-oxopyrimidin-1(6H)-yl)methyl)-4-(trifluoromethyl)-3,4-dihydroquinazolin-2(1H)-one] | 117
O=C1Nc2cc(Cn3cnc(Cl)cc3=O)ccc2[C@@](C#CC2CC2)(C(F)(F)F)N1 [Example 35, (S)-7-((4-chloro-6-oxopyrimidin-1(6H)-yl)methyl)-4-(cyclopropylethynyl)-4-(trifluoromethyl)-3,4-dihydroquinazolin-2(1H)-one] | 101
O=C1Nc2cc(Cn3cnc(C(F)F)cc3=O)ccc2[C@@](C#CC2CC2)(C(F)(F)F)N1 [Example 36, (S)-4-(cyclopropylethynyl)-7-((4-(difluoromethyl)-6-oxopyrimidin-1(6H)-yl)methyl)-4-(trifluoromethyl)-3,4-dihydroquinazolin-2(1H)-one] | 101
Nc1cncn(Cc2ccc3c(c2)NC(=O)N[C@]3(C#CC2CC2)C(F)(F)F)c1=O [Example 37, (S)-1-((4-(cyclopropylethynyl)-2-oxo-4-(trifluoromethyl)-1,2,3,4-tetrahydroquinazolin-7-yl)methyl)-6-oxo-1,6-dihydropyrimidin-5-aminium 2,2,2-trifluoroacetate] | 89

Same assay, conditions: read-out: EC50 (HIV-TACK cell kill activity); 2,2,2-trifluoroacetate

Compound | EC50 [nM]
Nc1cc(=O)n(Cc2ccc3c(c2)NC(=O)N[C@]3(C#CC2CC2)C(F)(F)F)cn1 [Example 32, (S)-1-((4-(cyclopropylethynyl)-2-oxo-4-(trifluoromethyl)-1,2,3,4-tetrahydroquinazolin-7-yl)methyl)-6-oxo-1,6-dihydropyrimidin-4-aminium 2,2,2-trifluoroacetate] | 141
